Measured values as given in US20250034116A1, “1,4-DIHETEROCYCLIC SUBSTITUTED AROMATIC RING OR AROMATIC HETEROCYCLIC COMPOUND AND USE THEREOF” (BeBetter Med Inc., priority 2022, published 2025).

Legend:
[1] = system: CYP enzymes in human liver microsomes (HLM); test: Inhibition of 20-HETE production in human liver microsomes (HLM); assay type: biochemical
Description: (§1) Experimental principle: The inhibitory activity of 20-HETE production is evaluated by testing the inhibitory effects of the compound on human liver microsomes (HLM), rat liver microsomes (RLM), mouse liver microsomes (MLM), or […] CYP4 subtype enzymes (CYP4F2). This assay employs HLM, RLM, or MLM along with recombinant CYP4F2 (rCYP4F2) and recombinant CYP4A11 (rCYP4A11), which are […] CYP4 subtype enzymes, to detect the effects of the test compound at different concentrations on the metabolic rate of enzyme-specific substrates, to determine the inhibitory effects of the test compound on CYP enzymes in HLM, RLM, or MLM.
(§2) Experimental methods: Dissolve the test compound in DMSO, and subsequently dilute it with an acetonitrile and DMSO mixture (3:1). Add 2 μl of varying concentrations of the test compound and 100 μl of potassium phosphate buffer containing either liver microsomes or recombinant enzymes to a 96-well plate. After mixing well, transfer 30 μl to another well (in duplicate), add 15 μl of 400 μM substrate solution, and mix well again. Preheat at 37° C. for 10 minutes, and then add 15 μl of 6 mM NADPH and incubate at 37° C. for 25 minutes. After 25 minutes, add 160 μl of acetonitrile solution (containing 0.1 μg/ml internal standard) to stop the reaction. Mix well, centrifuge at 3500 g for 15 minutes, and then analyze the supernatant using LC-MS/MS.
(§3) Plot the compound concentration on the x-axis and the inhibition rate on the y-axis to draw the curve. Use GraphPad Prism 5 software to fit the curve and calculate the IC50. The formula is Y=Bottom+(Top−Bottom)/(1+10^((Log IC50−X)×HillSlope)). X represents the logarithmic concentration of the inhibitor, and Y represents the relative enzyme activity at a given inhibitor concentration (relative to the condition without the inhibitor).
(§4) Calculate the inhibition percentages at concentrations of 1000 nM, 500 nM, or 100 nM as well as the half-maximal inhibitory concentration (IC50) of the test compound from the above experiment.

[2] = system: CYP enzymes in rat liver microsomes (RLM); test: Inhibition of 20-HETE production in rat liver microsomes (RLM); assay type: biochemical
Description: as §1, §2, §3, §4

| Compound | IC50 [1] [nM] | HLM (% inh @ 500 nM) [1] [%] | IC50 [2] [nM] | RLM (% inh @ 500 nM) [2] [%] | HLM (% inh @ 100 nM) ([1]; 100 nM) [%] |
| --- | --- | --- | --- | --- | --- |
| O=S(=O)(c1ccc(F)cc1)N1CCC(c2ccc(-c3cn[nH]c3)cc2F)CC1 [Compound 120, 4-(2-fluoro-4-(1H-pyrazol-4-yl)phenyl)-1-((4-fluorophenyl)sulfonyl)piperidine] | 16.1 | 93.40 | 107 | 71.20 |  |
| O=C(N1CCCCC1)N1CCN(c2ccc(-c3cn[nH]c3)c(F)c2F)CC1 [Compound 88, (4-(2,3-difluoro-4-(1H-pyrazol-4-yl)phenyl)piperazin-1-yl)(piperidin-1-yl) methanone] |  | 78.05 |  | 68.94 |  |
| C[C@@H]1CN(C(=O)N2CCCC2)CCN1c1ccc(-c2cn[nH]c2)c(F)c1F [Compound 104, (R)-(4-(2,3-difluoro-4-(1H-pyrazol-4-yl)phenyl)-3-methylpiperazin-1-yl)(pyrrolidin-1-yl) methanone] |  | 78.18 |  | 73.19 |  |
| O=C1CCCN1CC1CCN(c2ccc(-c3cn[nH]c3)cc2C(F)(F)F)CC1 [Compound 10, 1-((1-(4-(1H-pyrazol-4-yl)-2-(trifluoromethyl)phenyl)piperidin-4-yl)methyl)pyrrolidin-2-one] | 46.1 |  | 542 |  |  |
| CCCCCC1CCC(C(=O)N2CCC(c3ccc(-c4cn[nH]c4)c(F)c3F)CC2)CC1 (stereo not shown) [Compound 112, (4-(2,3-difluoro-4-(1H-pyrazol-4-yl)phenyl)piperidin-1-yl)((1s,4r)-4-pentylcyclohexyl) methanone] |  | 70.73 |  | 71.58 |  |
| O=C(C1CCC(F)(F)CC1)N1CCC(c2ccc(-c3cn[nH]c3)c(F)c2F)CC1 [Compound 101, (4-(2,3-difluoro-4-(1H-pyrazol-4-yl)phenyl)piperidin-1-yl)(4,4-difluorocyclohexyl) methanone] |  | 78.37 |  | 69.34 |  |
| O=C(NCc1ccccc1)N1CCN(c2ccc(-c3cn[nH]c3)c(F)c2F)CC1 [Compound 94, N-benzyl-4-(2,3-difluoro-4-(1H-pyrazol-4-yl)phenyl)piperazine-1-carboxamide] |  | 92.79 | 148 | 73.06 |  |
| O=C1CCCCC1C(=O)N1CCC(c2ccc(-c3cn[nH]c3)c(F)c2F)CC1 (stereo not shown) [Compound 109, 2-(4-(2,3-difluoro-4-(1H-pyrazol-4-yl)phenyl)piperidine-1-carbonyl)cyclohexane-1-one] |  | 74.67 |  | 68.22 |  |
| O=C(C1CCN(c2ccc(-c3cn[nH]c3)cc2)CC1)N1CC2(CCC2)C1 [Compound 67, (1-(4-(1H-pyrazol-4-yl)phenyl)piperidin-4-yl)(2-azaspiro[3.3]heptane-2-yl) methanone] |  | 55.57 |  | 30.84 |  |
| O=C1CCCN1CC1CCN(c2cc(F)c(-c3cn[nH]c3)cc2F)CC1 [Compound 6, 1-((1-(2,5-difluoro-4-(1H-pyrazol-4-yl)phenyl)piperidin-4-yl)methyl)pyrrolidin-2-one] |  | 67.30 |  | 23.02 |  |
| N#Cc1cc(-c2cn[nH]c2)ccc1N1CCC(CN2CCCC2=O)CC1 [Compound 13, 2-(4-((2-oxopyrrolidin-1-yl)methyl)piperidin-1-yl)-5-(1H-pyrazol-4-yl)benzonitrile] |  | 58.98 |  | −4.72 |  |
| O=C1CCCN1CC1CCN(c2ccc(-c3cnoc3)c(F)c2F)CC1 [Compound 37, 1-((1-(2,3-difluoro-4-(isoxazol-4-yl)phenyl)piperidin-4-yl)methyl)pyrrolidin-2-one] |  | 82.89 |  | 59.01 |  |
| O=C(N1CCN(c2ccc(-c3cn[nH]c3)cc2F)CC1)N1CC2CCCC2C1 (stereo not shown) [Compound 133, (4-(2-fluoro-4-(1H-pyrazol-4-yl)phenyl)piperazin-1-yl)(hexahydrocyclopenta[c]pyrrol-2 (1H)-yl) methanone] |  |  |  |  | 87.90 |

Other lines, results leading:

| IC50 [1] [nM] | HLM (% inh @ 500 nM) [1] [%] | IC50 [2] [nM] | RLM (% inh @ 500 nM) [2] [%] | HLM (% inh @ 100 nM) ([1]; 100 nM) [%] | Compound |
| --- | --- | --- | --- | --- | --- |
|  | 96.13 |  | 74.05 |  | O=C(C1CCCC1)N1CCC(c2c(F)cc(-c3cn[nH]c3)cc2F)CC1 [Compound 99, cyclopentyl(4-(2,6-difluoro-4-(1H-pyrazol-4-yl)phenyl)piperidin-1-yl) methanone] |
|  | 89.94 |  | 74.89 |  | O=C(N1CCCC1)N1CCN(c2ccc(-c3cn[nH]c3)cc2F)CC1 [Compound 129, (4-(2-fluoro-4-(1H-pyrazol-4-yl)phenyl)piperazin-1-yl)(pyrrolidin-1-yl) methanone] |
|  | 52.40 |  | 26.22 |  | c1cc(N2CCC(CN3CCCC3)CC2)ccc1-c1cn[nH]c1 [Compound 40, 1-(4-(1H-pyrazol-4-yl)phenyl)-4-(pyrrolidin-1-ylmethyl)piperidine] |
| 19.4 | 94.96 | 341 | 61.73 |  | O=C(NCc1ccccc1)C1CCN(c2ccc(-c3cn[nH]c3)c(F)c2F)CC1 [Compound 95, N-benzyl-1-(2,3-difluoro-4-(1H-pyrazol-4-yl)phenyl)piperidine-4-carboxamide] |
|  | 57.77 |  | 15.76 |  | Clc1ccc(CC2CCN(c3ccc(-c4cn[nH]c4)cc3)CC2)cc1 [Compound 41, 1-(4-(1H-pyrazol-4-yl)phenyl)-4-(4-chlorobenzyl)piperidine] |
|  | 52.63 |  | 2.30 |  | O=C(C1CCN(c2ccc(-c3cn[nH]c3)cc2)CC1)N1CC2CCC1C2 (stereo not shown) [Compound 65, (1-(4-(1H-pyrazol-4-yl)phenyl)piperidin-4-yl)(2-azabicyclo[2.2.1]heptane-2-yl) methanone] |
|  | 55.98 |  | 16.98 |  | O=C1CCC(=O)N1CC1CCN(c2ccc(-c3cn[nH]c3)cc2)CC1 [Compound 28, 1-((1-(4-(1H-pyrazol-4-yl)phenyl)piperidin-4-yl)methyl)pyrrolidine-2,5-dione] |
| 20.8 | 85.21 | 26.2 |  |  | C=CCCCCCC(=O)NCC1CCN(c2ccc(-c3cn[nH]c3)cc2)CC1 [Compound 115, N-((1-(4-(1H-pyrazol-4-yl)phenyl)piperidin-4-yl)methyl)oct-7-enamide] |
|  | 57.83 |  | 26.43 |  | O=C(CCCCCO)NCC1CCN(c2ccc(-c3cn[nH]c3)cc2)CC1 [Compound 45, N-((1-(4-(1H-pyrazol-4-yl)phenyl)piperidin-4-yl)methyl)-6-hydroxyhexanamide] |
|  | 62.73 |  | 21.92 |  | O=C(NC1CCCC1)C1CCN(c2ccc(-c3cn[nH]c3)cc2)CC1 [Compound 55, 1-(4-(1H-pyrazol-4-yl)phenyl)-N-cyclopentylpiperidine-4-carboxamide] |
|  | 94.93 |  | 34.82 |  | O=C1CCCN1CC1C2CN(c3ccc(-c4cn[nH]c4)cc3)CC12 (stereo not shown) [Compound 125, 1-((3-(4-(1H-pyrazol-4-yl)phenyl)-3-azabicyclo[3.1.0]hexan-6-yl)methyl)pyrrolidin-2-one] |
|  | 61.47 |  | 8.80 |  | O=C1C2CCC(C2)N1CC1CCN(c2ccc(-c3cn[nH]c3)cc2)CC1 (stereo not shown) [Compound 33, 2-((1-(4-(1H-pyrazol-4-yl)phenyl)piperidin-4-yl)methyl)-2-azabicyclo[2.2.1]heptan-3-one] |
|  | 53.10 |  | 34.61 |  | O=C1CCCN1CC1CCN(c2ccc(-c3cn[nH]c3)nc2)CC1 [Compound 22, 1-((1-(6-(1H-pyrazol-4-yl)pyridin-3-yl)piperidin-4-yl)methyl)pyrrolidin-2-one] |
|  | 94.11 |  | 55.76 |  | O=C(NC1CCCC1)N1CCN(c2ccc(-c3cn[nH]c3)c(F)c2F)CC1 [Compound 89, N-cyclopentyl-4-(2,3-difluoro-4-(1H-pyrazol-4-yl)phenyl)piperazine-1-carboxamide] |
| 32.8 |  | 605 | 25.96 |  | O=C1c2ccccc2CCN1CC1CCN(c2ccc(-c3cn[nH]c3)cc2)CC1 [Compound 42, 2-((1-(4-(1H-pyrazol-4-yl)phenyl)piperidin-4-yl)methyl)-3,4-dihydroisoquinolin-1(2H)-one] |
|  | 64.22 |  | 12.62 |  | O=Cc1cc(-c2cn[nH]c2)ccc1N1CCC(CN2CCCC2=O)CC1 [Compound 15, 2-(4-((2-oxopyrrolidin-1-yl)methyl)piperidin-1-yl)-5-(1H-pyrazol-4-yl)benzaldehyde] |
|  | 87.83 | 116 | 75.79 |  | O=S(=O)(C1CCCCC1)N1CCC(c2ccc(-c3cn[nH]c3)cc2F)CC1 [Compound 119, 1-(cyclohexylsulfonyl)-4-(2-fluoro-4-(1H-pyrazol-4-yl)phenyl)piperidine] |
